Our source for the IC50 values is paper PMC7718890 (Scientific Reports, 2020).

Like-named read-outs stand apart in the source and are kept apart here.

The target in this test is CarD·RNAP binding (CarD association with RPo) (Mycobacterium tuberculosis, UniProt P9WGY7+P9WGY9+P9WJG3, D68C).
Setting [1] is: read-out: CarD-BODIPY-FL assay CCG sample IC50.
Setting [2] is: read-out: CarD-BODIPY-FL assay Powder sample IC50.

For the compound `O=C(O)c1ccc(-c2nc3ccc(-c4ccc5nc(-c6ccc(C(=O)O)cc6)[nH]c5c4)cc3[nH]2)cc1` [CCG-249580], the IC50 – broadly, the point on the concentration scale where inhibition reaches its midpoint – runs as follows: under setting [1], 263 µM; under setting [2], 202 µM.

Turning to `COC(=O)c1noc(C)c1C(=O)/C=C/N1CCCCC1` [CCG-42210], the IC50 is 106 µM under setting [1] and 85 µM under setting [2].

For `O=C(NC(=O)N1CCCC1)C1CCN(c2cnc3ccccc3n2)CC1` [CCG-52363], the IC50 by setting is: under setting [1], 60 µM; under setting [2], 200 µM.

With `CC(=O)c1sc2nsc(SCCN3CCCC3)c2c1N` [CCG-239496], the IC50 reads like this: under setting [1], 90 µM; under setting [2], 47 µM.

Regarding `NC(=O)c1ccc(CC(=O)c2ccc(Cl)cc2)cc1` [CCG-251660], the IC50 under setting [1] is 106 µM and the IC50 under setting [2] was 37 µM.

With `CC(=O)Nc1ccc(NC(=O)c2nccnc2C(=O)O)cn1` [CCG-52573], the IC50 amounted to 78 µM under setting [1] and 160 µM under setting [2].

For `CN(C)c1ncnc(Oc2ccc(Cl)cc2)c1[N+](=O)[O-]` [CCG-247600], the IC50 under setting [1] came to 250 µM and the 50% inhibitory concentration (IC50) under setting [2] came to 132 µM.

For `Cc1cc2c(NC(=O)Nc3ccccc3)cccc2nn1` [CCG-237488], the IC50 under setting [1] worked out at 25 µM.

As for `CC(=O)Nc1ccc(NC(=O)c2ccccc2C(=O)O)cn1` [CCG-52160], the IC50 by setting is: under setting [1], 37 µM; under setting [2], 680 µM.

Consider `CCC(=O)Nc1cccc2c(NC(=O)CC)cccc12` [CCG-53654], for which the IC50 by setting is: under setting [1], 15 µM; under setting [2], 188 µM.
